Measured values from patent US10865196B2, “Compounds for treatment of cancer” (University of Tennessee Research Foundation, priority 2008, dated 2020).
“And” between values parts separate entries of the source, which are not always exact repeats. Equal entries are not always repeated. Where two headings read alike, the source gives them in different places.

Legend:
B16-F1 = assay: SRB antiproliferation assay, B16-F1 melanoma; type: cell-based, mouse
Description: (§1) For melanoma assays, one human melanoma cell line (A375) and one mouse melanoma cell line (B16-F1) were used. […] Fibroblast cells were used as a control to determine the selectivity of these compounds against melanoma. Human dermal fibroblast cells were purchased from Cascade Biologics, Inc., Portland, Oreg., USA.

A375 = assay: SRB antiproliferation assay, A375 melanoma; type: cell-based, human
Description: as §1

PC-3 = assay: SRB antiproliferation assay, PC-3 prostate cancer; settings: read-out: IC50 PC-3, SRB
LNCaP = assay: SRB antiproliferation assay, LNCaP prostate cancer; settings: read-out: IC50 LNCaP, SRB
PPC-1 = assay: SRB antiproliferation assay, PPC-1 prostate cancer; settings: read-out: IC50 PPC-1, SRB
DU 145 = assay: SRB antiproliferation assay, DU 145 prostate cancer; settings: read-out: IC50 DU 145, SRB
[1] = tested on: melanoma (A375, B16-F1) and prostate cancer cells (DU145, PC-3, LNCaP, PPC-1); assay: SRB assay, range over melanoma and prostate cancer cell lines; type: cell-based; settings: for antiproliferative activity against melanoma and prostate cancer cell lines, in words: compared with 8f or parent compounds
Procedure: For melanoma assays, one human melanoma cell line (A375) and one mouse melanoma cell line (B16-F1) were used. […] Fibroblast cells were used as a control to determine the selectivity of these compounds against melanoma. Human dermal fibroblast cells were purchased from Cascade Biologics, Inc., Portland, Oreg., USA. […] Cells were exposed to a wide range of concentrations for 48 h in round-bottomed 96-well plates. […] After cells were air-dried overnight and stained with SRB solution, total proteins were measured at 560 nm with a plate reader.

[2] = tested on: prostate cancer cells (LNCaP, PC-3, DU-145, PPC-1); assay: SRB assay, prostate cancer cells; type: cell-based, human
OVCAR-8 = assay: SRB antiproliferation assay, OVCAR-8 ovarian cancer; settings: Homo sapiens, OVCAR-8, read-out: IC50 OVCAR-8
[3] = Mus musculus, B16-F1, SRB, read-out: IC50 B16-F1 (converted)
[4] = Homo sapiens, A-375, SRB, read-out: IC50 A375 (converted)
[5] = range over the examined cell lines, read-out: IC50 over melanoma and prostate cancer cell lines
[6] = Mus musculus, B16-F1, 48 h, SRB, 48 h, read-out: IC50 B16-F1 (converted)
[7] = Homo sapiens, A-375, 48 h, SRB, 48 h, read-out: IC50 A375 (converted)
[8] = SRB, 48 h, read-out: IC50 A375 (converted)

| Structure (SMILES) | IC50 (B16-F1; [3]) [nM] | IC50 (A375; [4]) [nM] | IC50 (PC-3) [nM] | IC50 (LNCaP) [nM] | IC50 (PPC-1) [nM] | IC50 (DU 145) [nM] | IC50 [1, 5] [nM] | melting point | also measured |
| --- | --- | --- | --- | --- | --- | --- | --- | --- | --- |
| COc1cc(C(=O)c2csc(-c3ccc(C#N)cc3)n2)cc(OC)c1OC [8q, 4-[4-(3,4,5-Trimethoxybenzoyl)-thiazol-2-yl]-benzonitrile] | 53 | 59 | 30 | 15 | 19 | 52 | – | – | – |
| CCc1ccc(-c2nc(C(=O)c3cc(OC)c(OC)c(OC)c3)cs2)cc1 [8v, [2-(4-Ethyl-phenyl)-thiazol-4-yl]-(3,4,5-trimethoxy-phenyl)-methanone] | 70 | – | 27 | 60 | 22 | 31 | 17 to 70 | – | – |
| COc1cc(C(=O)c2csc(-c3ccc([N+](=O)[O-])cc3)n2)cc(OC)c1OC [8p, [2-(4-Nitrophenyl)-thiazol-4-yl]-(3,4,5-trimethoxyphenyl)-methanone] | 56 | 38 | 56 | 39 | 34 | 95 | – | – | – |
| COc1cc(NC(=O)c2csc(-c3ccccc3)n2)cc(OC)c1OC [compound 5, 2-Phenyl-N-(3,4,5-trimethoxyphenyl)thiazole-4-carboxamide] | – | – | – | – | – | – | – | 157 to 158 °C | IC50 (B16-F1; [6]): > 100000 nM; IC50 (A375; [7]): > 100000 nM; antiproliferative activity against melanoma and prostate cancer cell lines, in words [1]: did not show any cytotoxicity |
| COc1cc(NC(=O)[C@@H]2CSC(c3ccccc3)=N2)cc(OC)c1OC [4a, (4R)-2-Phenyl-N-(3,4,5-trimethoxyphenyl)-4,5-dihydrothiazole-4-carboxamide] | – | – | – | – | – | – | 3400 to 38300 | 121 to 122 °C and 122 to 123 °C | IC50 (B16-F1; [6]): 38300 ± 3200 nM; IC50 (A375; [7]): 22800 ± 1600 nM |
| COc1cc(C(=O)c2csc(Nc3ccccc3)n2)cc(OC)c1OC [5-a] | – | – | – | – | – | – | – | – | activity in prostate cancer cell lines, in words [2]: potent activity |
| COc1cc(C(=O)c2csc(Nc3ccc(F)cc3)n2)cc(OC)c1OC [5-c] | – | – | – | – | – | – | – | – | activity in prostate cancer cell lines, in words [2]: potent activity |
| COc1ccc(-c2nc(C(=O)c3cc(OC)c(OC)c(OC)c3)cs2)cc1OC [8o, [2-(3,4-Dimethoxyphenyl)-thiazol-4-yl]-(3,4,5-trimethoxyphenyl)-methanone] | 161 | 34 | 69 | 38 | 56 | 102 | – | – | – |
| COc1cc(OC)cc(C(=O)c2csc(-c3ccccc3)n2)c1 [8g, (3,5-Dimethoxyphenyl)(2-phenylthiazol-4-yl)-methanone] | – | – | – | – | – | – | 170 to 424 | 84 to 85 °C | IC50 (B16-F1; [6]): 350 nM; IC50 (A375; [7]): 170 nM; IC50 ([1]; average over six cell lines, read-out: average IC50): 261 nM |
| COc1cc(NC(=O)[C@@H]2CSC(c3ccccc3)=N2)cc(OC)c1OC [4b, (4R)-2-Phenyl-N-(3,4,5-trimethoxyphenyl)-4,5-dihydrothiazole-4-carboxamide] | – | – | – | – | – | – | – | – | IC50 (B16-F1; SRB, 48 h, listed as 4b(4S), read-out: IC50 B16-F1 (converted)): 30400 ± 2800 nM; IC50 (A375; SRB, 48 h, listed as 4b(4S), read-out: IC50 A375 (converted)): 13600 ± 1200 nM; IC50 (PC-3; 96 h, listed as 4b(4S)): 13200 ± 2100 nM; IC50 (LNCaP; 96 h, listed as 4b(4S)): 16800 ± 1800 nM; IC50 (PPC-1; 96 h, listed as 4b(4S)): 3400 ± 200 nM |
| CC(=O)Nc1ccc(C2N[C@H](C(=O)Nc3ccc4c(c3)Cc3ccccc3-4)CS2)cc1 (some centres unmarked) [ATCAA-2, reference compound] | – | – | – | – | – | – | 1600 to 3900 | – | IC50 (A375; [8]): 2100 ± 100 nM; IC50 (PC-3; 96 h): 2100 ± 100 nM; IC50 (LNCaP; 96 h): 3500 ± 700 nM; IC50 (PPC-1; 96 h): 1600 ± 100 nM; IC50 (DU 145; 96 h): 1900 ± 300 nM |
| COc1cc(C(=O)c2csc(-c3cccs3)n2)cc(OC)c1OC [8z, [2-(Thiophen-2-yl)-thiazol-4-yl]-(3,4,5-trimethoxyphenyl)-methanone] | – | – | – | 9 ± 1 | – | 22 ± 1 | 9 to 38 | – | IC50 (B16-F1; Mus musculus, B16-F1, read-out: IC50 B16-F1): 38 ± 15 nM; IC50 (A375; Homo sapiens, A-375, read-out: IC50 A375): 20 ± 7 nM |
| COc1cc(C(=O)c2csc(Nc3ccc(Cl)cc3)n2)cc(OC)c1OC [5-d] | – | – | – | – | – | – | – | – | activity in prostate cancer cell lines, in words [2]: potent activity |
| COc1cc(C(=O)c2csc(-c3ccc(C(F)(F)F)cc3)n2)cc(OC)c1OC [8t, (2-(4-(Trifluoromethyl)-phenyl)-thiazol-4-yl)(3,4,5-trimethoxyphenyl)-methanone] | 92 | 23 | 58 | 94 | 76 | 50 | – | – | – |
| COc1cc(C(=O)c2csc(-c3ccc(Br)cc3)n2)cc(OC)c1OC [8u, [2-(4-Bromophenyl)-thiazol-4-yl]-(3,4,5-trimethoxyphenyl)-methanone] | 32 | 13 | 18 | 44 | 21 | 21 | – | – | IC50 ([2]; Homo sapiens, range over prostate cancer cell lines, read-out: IC50 values against prostate cancer cells): 18 to 44 nM |
| COc1cc(C(=O)c2csc(-c3ccc(C)cc3)n2)cc(OC)c1OC [8k, (2-p-Tolylthiazol-4-yl)-(3,4,5-trimethoxyphenyl)-methanone] | – | – | 5 | – | – | – | 5 to 21 | 116 to 119 °C | – |
| COc1cc(C(=O)c2csc(-c3ccncc3)n2)cc(OC)c1OC [8x, [2-(Pyridin-4-yl)-thiazol-4-yl]-(3,4,5-trimethoxyphenyl)-methanone] | > 100000 | > 100000 | > 20000 | > 20000 | > 20000 | > 20000 | – | 178 to 180 °C | – |
| COc1cc(NC(=O)[C@@H]2CSC(c3cc(OC)c(OC)c(OC)c3)N2)cc(OC)c1OC (mixture of isomers) [2b, (2RS,4R)—N,2-bis(3,4,5-trimethoxyphenyl)thiazolidine-4-carboxamide] | – | – | – | – | – | – | – | 147 to 149 °C | IC50 (B16-F1; [6]): > 100000 nM; IC50 (A375; [7]): > 100000 nM; antiproliferative activity against melanoma and prostate cancer cell lines, in words [1]: potency against both cancer cell lines was lost |
| COc1cc(C(=O)c2csc(-c3ncccn3)n2)cc(OC)c1OC [8y, [2-(Pyrimidin-2-yl)-thiazol-4-yl]-(3,4,5-trimethoxyphenyl)-methanone] | 2300 | 4100 | 2660 | 2370 | 1190 | 2810 | 11800 to 41000 | 190 to 191 °C | – |
| COc1cc(C(=O)c2cscn2)cc(OC)c1OC [compound 10, Thiazol-4-yl-(3,4,5-trimethoxy-phenyl)-methanone] | > 100000 | > 100000 | > 20000 | > 20000 | > 20000 | > 20000 | – | 106 to 108 °C | antiproliferative activity against melanoma and prostate cancer cell lines, in words [1]: total loss of activity |
| COc1cccc(C(=O)c2csc(-c3ccccc3)n2)c1 [8c, (3-Methoxyphenyl)(2-phenylthiazol-4-yl)-methanone] | – | – | – | – | – | – | > 20000 | 43 to 44 °C | IC50 (B16-F1; [6]): > 100000 nM; IC50 (A375; [7]): > 100000 nM |
| CCCCCCCCCCCCCCCCNC(=O)[C@@H]1CSC(c2ccc(NC(C)=O)cc2)N1 (some centres unmarked) [ATCAA-1, reference compound] | – | – | – | – | – | – | 400 to 2200 | – | IC50 (B16-F1; SRB, 48 h, read-out: IC50 B16-F1 (converted)): 2200 ± 300 nM; IC50 (A375; [8]): 2100 ± 200 nM; IC50 (LNCaP; 96 h): 1000 ± 100 nM; IC50 (PPC-1; 96 h): 400 ± 100 nM; IC50 (DU 145; 96 h): 1700 ± 100 nM |
| COc1cc(C(=O)c2csc(-c3ccc(CN)cc3)n2)cc(OC)c1OC | – | – | – | – | – | – | – | – | IC50 (OVCAR-8): 26 ± 2 nM |
| COc1cc(NC(=O)[C@@H]2CSC(c3ccccc3)N2)cc(OC)c1OC (mixture of isomers) [2a, (2RS,4R)-2-Phenyl-N-(3,4,5-trimethoxyphenyl)thiazolidine-4-carboxamide] | – | – | – | – | – | – | – | 158 to 159 °C | IC50 (B16-F1; [6]): > 100000 nM; IC50 (A375; [7]): > 100000 nM; antiproliferative activity against melanoma and prostate cancer cell lines, in words [1]: potency against both cancer cell lines was lost |
| CCc1cc(C(=O)c2csc(-c3ccccc3)n2)cc(OC(F)(F)F)c1OC(=O)CCl [18-18] | – | – | ~10000 | ~10000 | ~10000 | ~10000 | – | – | – |
| COc1ccc(C(=O)c2csc(-c3ccccc3)n2)cc1 [8b, (4-Methoxyphenyl)(2-phenylthiazol-4-yl)-methanone] | – | – | – | – | – | – | > 20000 | 105 to 106 °C | IC50 (B16-F1; [6]): > 100000 nM; IC50 (A375; [7]): > 100000 nM |
